According to US20240016875A1, “SHAN-ZHA FOR THE TREATMENT OF DEPRESSION AND ANXIETY DISORDERS” (THE OPEN UNIVERSITY, priority 2020, published 2024):
“Also recorded” adds a separate entry of the source.

Tests used:
[1] = Body weight monitoring, stressed mice; assay type: in vivo; conditions: UCMS-stressed mice, Shan-zha and NHT 30 mg/kg, escitalopram 15 mg/kg i.p., 3 weeks, vs vehicle
Protocol: Crataegus pinnatifida, Triticum aestivum, Lilium brownii and Fructus zizyphi jujuba were purchased as freeze-dried granules (KPC Products, Inc., Irvine, CA, USA). Each herb was dissolved in saline with 1% dimethylsulfoxide (DMSO) to a final concentration of 0.47 mg/ml and injected i.p. individually (30 mg/kg) or with the other components to form the formula (NHT, 30 mg/kg). […] Vehicle treatment included i.p. injection of saline with 1% DMSO. All treatments were carried out for 3 weeks. Mice were weighed every 3 days throughout the treatment period. Change in weight was calculated as final (weight-initial weight)/initial weight×100.

stressed mice [2] = test: Tail suspension test (TST), UCMS-stressed mice, Examples 1-3; assay type: in vivo; conditions: UCMS-stressed male ICR mice; herbs and NHT 30 mg/kg, escitalopram 15 mg/kg i.p., 3 weeks; vs vehicle
stressed mice [3] = test: Forced Swim Test (FST), UCMS-stressed mice, Example 7; assay type: in vivo; conditions: 30 mg/kg (escitalopram 15 mg/kg) i.p., 3 weeks, vs vehicle
Protocol: (§1) Animals. ICR outbred mice (Envigo RMS (Harlen), Israel) are kept in the vivarium of the Open University lab in Hadassah medical center, Jerusalem. Mice are kept on a reversed 12 h light/dark cycle and given ad libitum access to food and water. All experiments are performed during the dark phase under red light (7:00-19:00). All experiments have been approved by the committee for animal care and use according to the NIH guidelines. Drugs. Drugs are dissolved in saline and 1% DMSO to the desired concentration and administered i.p. Herbal mixture and Shan-zha (30 mg/kg) will be prepared by dissolving each component (KPC Products, Inc., CA, USA) to a final concentration of 0.47 mg/ml. […] Unpredictable chronic mild stress (UCMS). Mice are exposed to UCMS for 4 weeks at the age of 4 weeks as previously described. Forced Swim Test (FST). This test is based upon the evaluation of immobility as a measure of behavioral despair and are performed as previously described. Depressive-like behavior are expressed as the time the mouse was immobile defined as cessation of limb movements except minor movement necessary to keep the mouse afloat.

21 days old pups = test: EPM in 21 days old pups treated via lactation; assay type: in vivo, mice
Protocol: The EPM task was performed as previously described. Shortly, each mouse was placed in the center of the maze and video recorded for 5 min. Anxiety-like behavior was expressed as the time the mouse spent in the open, unprotected arms of the maze.
Female (n=40) and male (n=5) ICR outbred mice (100 days old; Envigo RMS, Jerusalem, Israel) were housed at 22±1° C. under 12 h light/dark cycles in the vivarium of the Open University lab in Hadassah medical center, Jerusalem. Mice had ad libitum access to rodent chow and water. Mice were housed in standard cages with a bed of woodchips and a piece of cotton wool for enrichment. All experiments were performed during the dark phase of the cycle. Male mice were used to father pups and were housed apart (5 per cage) from females until mating. […] Once a vaginal plug was identified, the females were transferred to a separate cage until parturition. Overall, 455 pups were delivered of which 317 (male: n=165; female: n=152) were designated for this study. Unassessed pups were maintained with littermates to avoid additional stress and ensure similar conditions. […]
Following mating, dams were separated to individual cages and were observed periodically to ensure onset of pregnancy. […] Shortly after, anxiety-like behavior was assessed on the EPM and dams were assigned to treatment group (escitalopram/shan-zha/vehicle). […]

stressed mice [4] = test: Tail Suspension Test (TST), UCMS-stressed mice, Example 7; assay type: in vivo; conditions: 30 mg/kg (escitalopram 15 mg/kg) i.p., 3 weeks, vs vehicle
Protocol: as §1, with “Tail Suspension” for “Forced Swim”, “(TST).” for “(FST).”, “immobile.” for “immobile defined as cessation of limb movements except minor movement necessary to keep the mouse afloat.”

BDNF = test: Hippocampal BDNF levels (ELISA), Example 7; assay type: in vivo; conditions: stressed mice; 30 mg/kg (escitalopram 15 mg/kg) i.p., 3 weeks; vs vehicle
Protocol: Assessment of brain BDNF levels. Tissues are homogenized in cold extraction buffer (Tris-buffered saline, pH 8.0, with 1% NP-40, 10% glycerol, 5 mM sodium metavanadate, 10 mM PMSF, 100 mg/ml aprotinin and 10 mg/ml leupeptin). Homogenates are acidified with 0.1 M HCl (pH 3.0), incubated at room temperature (22-24° C.) for 15 min, and neutralized with 0.1 M NaOH (pH 7.6). Homogenates are then microfuged at 7,000 g for 10 min. BDNF levels in the supernatant are evaluated using sandwich ELISA.

CN(C)CCC[C@@]1(c2ccc(F)cc2)OCc2cc(C#N)ccc21 [escitalopram]
weight change [1]: significantly increased weight compared to vehicle
weight change ([1]; listed as Escitalopram): higher weight gain in comparison with vehicle-treated mice
time spent immobile in the TST (depressive-like behavior) (stressed mice [2]): spent less time immobile in comparison with vehicle-treated mice; also recorded: reduced depressive-like behavior in the Tail suspension test (TST) compared to vehicle
depressive-like behavior in the FST (stressed mice [3]): exhibited reduced depressive-like behavior in the FST compared to vehicle-treated stressed mice
stress-induced anxiety-like behavior within treatment group, pups (21 days old pups; PND21, stressed vs naive pups): No similar stress-induced anxiety-like behavior was observed
anxiety-like behavior in the EPM, treated stressed pups vs saline-treated stressed pups (21 days old pups; PND21, prenatal stress, treatment via lactation, dams 15 mg/kg s.c. daily): saline-treated stressed pups demonstrated elevated anxiety-like behavior compared to both shan-zha- and escitalopram-treated stressed pups; also recorded: the stress-vehicle group demonstrated increased anxiety-like behavior compared to the naïve-vehicle, stress-escitalopram and stress-shan-zha groups
depressive-like behavior in the TST (stressed mice [4]): exhibited reduced depressive-like behavior in the TST compared to vehicle-treated stressed mice
hippocampal BDNF levels (BDNF): Significant elevations in hippocampal BDNF levels
